These results are taken from patent US5204351A, “6-fluoro-3,5-dihydroxy carboxylic acids and derivatives thereof” (Hoechst Aktiengesellschaft, priority 1988, dated 1993).

The test system of one assay is cholesterol. The settings on record: rats; cited from earlier work.
In another assay the target is T1, HMG-CoA reductase (Rattus norvegicus, UniProt P51639).
T1 construct: solubilized enzyme preparations from liver microsomes from rats; from tissue; host or cells: liver microsomes of cholestyramine-induced rats
T1 sequence (P51639 1-887): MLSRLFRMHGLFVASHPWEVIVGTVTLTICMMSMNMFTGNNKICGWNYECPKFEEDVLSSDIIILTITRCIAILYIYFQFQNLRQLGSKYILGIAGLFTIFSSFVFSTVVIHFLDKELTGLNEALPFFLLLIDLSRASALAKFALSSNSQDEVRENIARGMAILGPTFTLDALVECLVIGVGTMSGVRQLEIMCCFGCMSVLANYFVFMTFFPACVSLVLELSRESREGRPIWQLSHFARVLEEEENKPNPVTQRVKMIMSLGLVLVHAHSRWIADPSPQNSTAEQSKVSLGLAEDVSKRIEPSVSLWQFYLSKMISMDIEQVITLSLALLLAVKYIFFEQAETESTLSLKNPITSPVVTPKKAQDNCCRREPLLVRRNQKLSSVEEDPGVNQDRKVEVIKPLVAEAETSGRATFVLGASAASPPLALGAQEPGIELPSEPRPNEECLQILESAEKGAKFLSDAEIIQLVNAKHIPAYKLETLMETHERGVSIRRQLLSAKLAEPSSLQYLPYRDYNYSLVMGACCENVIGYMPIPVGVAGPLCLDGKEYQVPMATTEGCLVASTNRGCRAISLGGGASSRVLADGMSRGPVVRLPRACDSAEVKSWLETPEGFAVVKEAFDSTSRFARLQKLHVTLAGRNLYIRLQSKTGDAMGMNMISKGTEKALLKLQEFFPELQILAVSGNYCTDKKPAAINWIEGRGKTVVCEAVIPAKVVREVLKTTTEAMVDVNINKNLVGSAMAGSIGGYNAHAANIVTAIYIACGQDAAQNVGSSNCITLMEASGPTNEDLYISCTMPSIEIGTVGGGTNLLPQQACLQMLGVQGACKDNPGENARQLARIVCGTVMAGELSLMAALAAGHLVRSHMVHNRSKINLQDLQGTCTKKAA
Briefly: HMG CoA reductase activity in enzyme preparations (solubilized enzyme preparations from liver microsomes of cholestyramine-induced rats, 14C-HMG-CoA substrate). In kind it is biochemical. As to conditions: solubilized rat liver microsomal enzyme; mean of 3 parallel samples; Table 1; read-out: IC50 for inhibition of HMG-CoA reductase. As to the method:
1. HMG CoA reductase activity in enzyme preparations
The HMG-CoA reductase activity was measured on solubilized enzyme preparations from liver microsomes from rats which, after a changeover in the day/night rhythm, had been induced with cholestyramine (®Cuemid).
The substrate used was (S,R) ^14 C-HMG-CoA, and the concentration of NADPH was maintained constant during the incubation by a regenerating system. ^14 C-Mevalonate was separated from the substrate and other products (e.g. ^14 C-HMG) by column elution, with the elution profile of each individual sample being determined.
Permanent inclusion of ^3 H-mevalonate was dispensed with because the determination was for relative data on the inhibitory effect. In each test series the enzyme-free control, the enzyme-containing normal mixture (=100%) and those with added product, final concentration 10^-5 to 10^-9 M, were treated together. Each individual value was formed as the mean of 3 parallel samples. The significance of the differences between means for product-free and product-containing samples was assessed using the t test.
The method described above was used to measure, for example, the following figures for the inhibition of HMG-CoA reductase by the compounds according to the invention [IC50 /mol/liter means the molar concentration of the compound per liter necessary for 50% inhibition]: […]

Assay [1] concerns cholesterol biosynthesis (in HEP-G2 cells). Briefly: Suppression or inhibition of HMG-CoA reductase in cell cultures of HEP-G2 cells: inhibition of cholesterol biosynthesis from 14C-acetate. The settings on record: Homo sapiens, HepG2, monolayers, e.g. 1 hour preincubation, 3 hours with sodium 14C-acetate, Table 2. In kind it is cell-based. As to the method:
2. Suppression or inhibition of HMG-CoA reductase in cell cultures of HEP-G2 cells
Monolayers of HEP-G2 cells in the lipoprotein-free nutrient medium were preincubated with appropriate concentrations of the test substances for a defined time (for example 1 hour) and, after addition of the labeled precursor, for example sodium ^14 C-acetate, the incubation was continued (for example for 3 hours). An internal standard (^3 H-cholesterol) was added and then a portion of the cells underwent alkaline hydrolysis. The lipids from the hydrolyzed cells were extracted with chloroform/methanol. After addition of carrier cholesterol to this lipid mixture it was subjected to preparative thin-layer chromatography, the cholesterol band was visualized with iodine vapor and then isolated, and the amount of ^14 C-cholesterol formed from the ^14 C-precursor was determined by scintigraphy. Cell protein was determined in an aliquot of the cells so that it is possible to calculate the amount of ^14 C-cholesterol formed per unit time and per mg of cell protein. The inhibitory effect of the particular test product on the cholesterol biosynthesis by HEP-G2 cell cultures was obtained by comparing this figure with the amount of ^14 C-cholesterol formed per mg of cell protein and unit time in a culture treated in the same way but free of test substance.
Examination of substances for inhibition of cholesterol biosynthesis
in confluent cell cultures (monolayers) of HEP-G2 cells
The method described above was used to measure, for example, the following figures for the inhibition of cholesterol biosynthesis (in HEP-G2 cells) by the compounds according to the invention (the IC50 /mol/liter is that concentration of the compound which brings about 50% inhibition of cholesterol biosynthesis) (Tab. 2).

What is called IC50 is the concentration needed to halve the response being measured.

As for `CC(O)(CC(=O)O)CC(=O)O` [3-Hydroxy-3-methylglutaric acid], the cholesterol-lowering action entry in the assay on cholesterol was “significant cholesterol-lowering action”. Consider `CC(C)c1nc(-c2ccc(F)cc2)nc(-c2ccc(F)cc2)c1/C=C(\F)[C@@H]1C[C@@H](O)CC(=O)O1` [10 a], for which the values for the 50% inhibitory concentration (IC50) (at HMG-CoA reductase; in assay [1]) were 2.9 nM and 19 nM, respectively. Take `CC(C)c1nc(-c2ccccc2)cc(-c2ccc(F)cc2)c1/C=C(\F)[C@@H]1C[C@@H](O)CC(=O)O1` [10 b]: the IC50 worked out at 9 nM at HMG-CoA reductase and 4.6 nM in assay [1]. Taken in the same sequence, the figures for `CC(C)c1nc(-c2ccc(F)cc2)c(/C=C(\F)[C@@H]2C[C@@H](O)CC(=O)O2)c(C(C)C)n1` [10 g] were 1.8 nM and 2.5 nM. As to `CC(C)c1nc(-c2ccc(F)cc2)nc(-c2ccc(F)cc2)c1C=C(F)C(O)CC(O)CC(=O)O` (stereo not drawn) [11 a], the IC50 in assay [1] was found to be 18 nM. In turn, `CC(C)c1nc(-c2ccccc2)cc(-c2ccc(F)cc2)c1/C=C(\F)[C@@H](O)C[C@@H](O)CC(=O)O` [11 b] yielded a half-inhibitory concentration (IC50) in assay [1] of 20 nM.
